Test results: US20250320213A1, “Nitrogen-Containing Heterocyclic Compounds” (Pfizer Inc., priority 2024, published 2025)

Biological target: T1, STAT6 (Homo sapiens, UniProt P42226)
T1 construct: stably transfected HaCaT keratinocyte cell line, which expresses NanoLuc luciferase reporter gene under the transcriptional control of the STAT6 responsive promoter; endogenous in cells; host or cells: HaCaT keratinocyte reporter cell line (stably transfected with a NanoLuc reporter)
T1 sequence (P42226 1-847): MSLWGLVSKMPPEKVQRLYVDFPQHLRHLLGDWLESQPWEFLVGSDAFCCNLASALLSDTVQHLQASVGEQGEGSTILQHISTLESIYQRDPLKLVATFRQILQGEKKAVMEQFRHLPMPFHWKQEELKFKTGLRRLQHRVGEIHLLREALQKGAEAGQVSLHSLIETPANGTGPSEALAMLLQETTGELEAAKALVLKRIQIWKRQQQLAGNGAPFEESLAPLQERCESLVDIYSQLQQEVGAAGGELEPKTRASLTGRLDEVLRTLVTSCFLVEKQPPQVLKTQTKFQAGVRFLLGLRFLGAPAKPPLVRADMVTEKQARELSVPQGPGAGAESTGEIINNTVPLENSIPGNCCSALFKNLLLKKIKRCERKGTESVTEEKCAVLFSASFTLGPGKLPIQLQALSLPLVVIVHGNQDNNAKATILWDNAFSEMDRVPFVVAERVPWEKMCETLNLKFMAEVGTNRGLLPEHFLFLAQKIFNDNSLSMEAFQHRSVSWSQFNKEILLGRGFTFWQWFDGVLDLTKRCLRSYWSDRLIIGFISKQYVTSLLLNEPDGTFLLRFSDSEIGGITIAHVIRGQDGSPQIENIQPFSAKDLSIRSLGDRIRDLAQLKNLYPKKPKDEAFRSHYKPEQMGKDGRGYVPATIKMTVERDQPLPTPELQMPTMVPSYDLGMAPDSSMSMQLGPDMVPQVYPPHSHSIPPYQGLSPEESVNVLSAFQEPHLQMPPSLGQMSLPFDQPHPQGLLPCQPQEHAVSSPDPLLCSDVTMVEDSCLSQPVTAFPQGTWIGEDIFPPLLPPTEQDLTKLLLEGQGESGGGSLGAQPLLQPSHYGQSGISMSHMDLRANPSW
Assay: STAT6 Reporter Luciferase Assay (IL-13 stimulated HaCaT keratinocyte NanoLuc reporter cells)
Assay type: cell-based
Conditions: IL-13 stimulated HaCaT STAT6 NanoLuc reporter cells; read-out: Reporter EC50
Outline: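 HaCaT IL-13Ra2-promoter NanoLuc reporter; cpd 2 h 37 °C in DMEM/2% HI FBS; IL-13 0.12 nM final, 4 h; Nano-Glo luminescence.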

Structure (SMILES)	EC50
CC(C)n1nc(C(=O)NCc2ccc(NC(=O)NC3(C)CNC3)c(F)c2)c2c1[C@@H](C)CN(c1ccc(C(=O)N(C)C)cc1)C2 [Example 685, (S)-5-(4-(dimethylcarbamoyl)phenyl)-N-(3-fluoro-4-(3-(3-methylazetidin-3-yl)ureido)benzyl)-1-isopropyl-7-methyl-4,5,6,7-tetrahydro-1H-pyrazolo[4,3-c]pyridine-3-carboxamide]	2 nM
CC(C)n1nc(C(=O)NCc2ccc(NC(=O)N(C)CCC(=O)O)c(F)c2)c2c1[C@@H](C)CN(c1ccc(C(=O)N(C)C)cc1)C2 [Example 733, (S)-3-(3-(4-((5-(4-(dimethylcarbamoyl)phenyl)-1-isopropyl-7-methyl-4,5,6,7-tetrahydro-1H-pyrazolo[4,3-c]pyridine-3-carboxamido)methyl)-2-fluorophenyl)-1-methylureido)propanoic acid]	342 nM
CC(C)n1nc(C(=O)NCc2ccc(NC(=O)N3CCC(C(=O)O)CC3)c(F)c2)c2c1[C@@H](C)CN(c1ccc(C(=O)N(C)C)cc1)C2 [Example 734, (S)-1-((4-((5-(4-(dimethylcarbamoyl)phenyl)-1-isopropyl-7-methyl-4,5,6,7-tetrahydro-1H-pyrazolo[4,3-c]pyridine-3-carboxamido)methyl)-2-fluorophenyl)carbamoyl)piperidine-4-carboxylic acid]	38 nM
CC(C)n1nc(C(=O)NCc2ccc(NC(=O)N3CCC4(CC3)CN(C)CCO4)cc2)c2c1[C@@H](C)CN(c1ccc(C(=O)N(C)C)cc1)C2 [Example 738, (S)-N-(4-((5-(4-(dimethylcarbamoyl)phenyl)-1-isopropyl-7-methyl-4,5,6,7-tetrahydro-1H-pyrazolo[4,3-c]pyridine-3-carboxamido)methyl)phenyl)-4-methyl-1-oxa-4,9-diazaspiro[5.5]undecane-9-carboxamide]	1 nM
CC(C)n1nc(C(=O)NCc2ccc(NC(=O)NC3(C)CNC3)cc2)c2c1[C@@H](C)CN(c1ccc(C(=O)N(C)C)cc1)C2 [Example 739, (S)-5-(4-(dimethylcarbamoyl)phenyl)-1-isopropyl-7-methyl-N-(4-(3-(3-methylazetidin-3-yl)ureido)benzyl)-4,5,6,7-tetrahydro-1H-pyrazolo[4,3-c]pyridine-3-carboxamide]	2 nM
CC(C)n1nc(C(=O)NCc2ccc(NC(=O)N3CCC4(CC3)CCN4C)cc2)c2c1[C@@H](C)CN(c1ccc(C(=O)N(C)C)cc1)C2 [Example 740, (S)-5-(4-(dimethylcarbamoyl)phenyl)-1-isopropyl-7-methyl-N-(4-(1-methyl-1,7-diazaspiro[3.5]nonane-7-carboxamido)benzyl)-4,5,6,7-tetrahydro-1H-pyrazolo[4,3-c]pyridine-3-carboxamide]	2 nM
CC(C)n1nc(C(=O)NCc2ccc(NC(=O)N3CC4(CCCN(C)C4)C3)cc2)c2c1[C@@H](C)CN(c1ccc(C(=O)N(C)C)cc1)C2 [Example 741, (S)-5-(4-(dimethylcarbamoyl)phenyl)-1-isopropyl-7-methyl-N-(4-(6-methyl-2,6-diazaspiro[3.5]nonane-2-carboxamido)benzyl)-4,5,6,7-tetrahydro-1H-pyrazolo[4,3-c]pyridine-3-carboxamide]	1 nM
CC(C)n1nc(C(=O)NCc2ccc(NC(=O)N3CCC4(CC3)CN(C)C4)cc2)c2c1[C@@H](C)CN(c1ccc(C(=O)N(C)C)cc1)C2 [Example 742, (S)-5-(4-(dimethylcarbamoyl)phenyl)-1-isopropyl-7-methyl-N-(4-(2-methyl-2,7-diazaspiro[3.5]nonane-7-carboxamido)benzyl)-4,5,6,7-tetrahydro-1H-pyrazolo[4,3-c]pyridine-3-carboxamide]	1 nM
CC(C)n1nc(C(=O)NCc2ccc(NC(=O)N3CCN(C)[C@H](C)C3)cc2)c2c1[C@@H](C)CN(c1ccc(C(=O)N(C)C)cc1)C2 [Example 743, (S)-5-(4-(dimethylcarbamoyl)phenyl)-N-(4-((R)-3,4-dimethylpiperazine-1-carboxamido)benzyl)-1-isopropyl-7-methyl-4,5,6,7-tetrahydro-1H-pyrazolo[4,3-c]pyridine-3-carboxamide]	1 nM

Continued by falling EC50, values first:

EC50	Structure (SMILES)
1 nM	CC(C)n1nc(C(=O)NCc2ccc(NC(=O)N3CCN(C)[C@H](C)C3)c(F)c2)c2c1[C@@H](C)CN(c1ccc(C(=O)N(C)C)cc1)C2 [Example 686, (S)-5-(4-(dimethylcarbamoyl)phenyl)-N-(4-((R)-3,4-dimethylpiperazine-1-carboxamido)-3-fluorobenzyl)-1-isopropyl-7-methyl-4,5,6,7-tetrahydro-1H-pyrazolo[4,3-c]pyridine-3-carboxamide]
1 nM	CC(C)n1nc(C(=O)NCc2ccc(NC(=O)N3CCN4CCCC[C@@H]4C3)c(F)c2)c2c1[C@@H](C)CN(c1ccc(C(=O)N(C)C)cc1)C2 [Example 687, (R)-N-(4-(((S)-5-(4-(dimethylcarbamoyl)phenyl)-1-isopropyl-7-methyl-4,5,6,7-tetrahydro-1H-pyrazolo[4,3-c]pyridine-3-carboxamido)methyl)-2-fluorophenyl)octahydro-2H-pyrido[1,2-a]lpyrazine-2-carboxamide]
1 nM	COC[C@H]1CN(C(=O)Nc2ccc(CNC(=O)c3nn(C(C)C)c4c3CN(c3ccc(C(=O)N(C)C)cn3)C[C@@H]4C)cc2F)CCN1 [Example 688, (S)-5-(5-(dimethylcarbamoyl)pyridin-2-yl)-N-(3-fluoro-4-((R)-3-(methoxymethyl)piperazine-1-carboxamido)benzyl)-1-isopropyl-7-methyl-4,5,6,7-tetrahydro-1H-pyrazolo[4,3-c]pyridine-3-carboxamide]
1 nM	COC[C@H]1CN(C(=O)Nc2ccc(CNC(=O)c3nn(C(C)C)c4c3CN(c3ccc(C(=O)N(C)C)cc3)C[C@@H]4C)cc2F)CCN1 [Example 689, (S)-5-(4-(dimethylcarbamoyl)phenyl)-N-(3-fluoro-4-((R)-3-(methoxymethyl)piperazine-1-carboxamido)benzyl)-1-isopropyl-7-methyl-4,5,6,7-tetrahydro-1H-pyrazolo[4,3-c]pyridine-3-carboxamide]
1 nM	CC(C)n1nc(C(=O)NCc2ccc(NC(=O)N3CCN4CCC[C@@H]4C3)c(F)c2)c2c1[C@@H](C)CN(c1ccc(C(=O)N(C)C)cn1)C2 [Example 690, (S)-5-(5-(dimethylcarbamoyl)pyridin-2-yl)-N-(3-fluoro-4-((R)-octahydropyrrolo[1,2-a]lpyrazine-2-carboxamido)benzyl)-1-isopropyl-7-methyl-4,5,6,7-tetrahydro-1H-pyrazolo[4,3-c]pyridine-3-carboxamide]
1 nM	CC(C)n1nc(C(=O)NCc2ccc(NC(=O)N3CCN4CCC[C@@H]4C3)cc2)c2c1[C@@H](C)CN(c1ccc(C(=O)N(C)C)cn1)C2 [Example 691, (S)-5-(5-(dimethylcarbamoyl)pyridin-2-yl)-1-isopropyl-7-methyl-N-(4-((R)-octahydropyrrolo[1,2-a]pyrazine-2-carboxamido)benzyl)-4,5,6,7-tetrahydro-1H-pyrazolo[4,3-c]pyridine-3-carboxamide]
1 nM	CC(C)n1nc(C(=O)NCc2ccc(NC(=O)N3CCN(C)[C@@H](C)C3)cc2)c2c1[C@@H](C)CN(c1ccc(C(=O)N(C)C)cc1)C2 [Example 735, (S)-5-(4-(dimethylcarbamoyl)phenyl)-N-(4-((S)-3,4-dimethylpiperazine-1-carboxamido)benzyl)-1-isopropyl-7-methyl-4,5,6,7-tetrahydro-1H-pyrazolo[4,3-c]pyridine-3-carboxamide]
1 nM	CC(C)n1nc(C(=O)NCc2ccc(NC(=O)N3CC[C@@H](CN(C)C)C3)cc2)c2c1[C@@H](C)CN(c1ccc(C(=O)N(C)C)cc1)C2 [Example 736, (S)-N-(4-((S)-3-((dimethylamino)methyl)pyrrolidine-1-carboxamido)benzyl)-5-(4-(dimethylcarbamoyl)phenyl)-1-isopropyl-7-methyl-4,5,6,7-tetrahydro-1H-pyrazolo[4,3-c]pyridine-3-carboxamide]
1 nM	CC(C)n1nc(C(=O)NCc2ccc(NC(=O)N3CCN4CCCC[C@H]4C3)cc2)c2c1[C@@H](C)CN(c1ccc(C(=O)N(C)C)cc1)C2 [Example 737, (S)-N-(4-(((S)-5-(4-(dimethylcarbamoyl)phenyl)-1-isopropyl-7-methyl-4,5,6,7-tetrahydro-1H-pyrazolo[4,3-c]pyridine-3-carboxamido)methyl)phenyl)octahydro-2H-pyrido[1,2-a]pyrazine-2-carboxamide]
